From ChEMBL document CHEMBL1134948, “The antimicrobial natural product chuangxinmycin and some synthetic analogues are potent and selective inhibitors of bacterial tryptophanyl tRNA synthetase” (Bioorg Med Chem Lett, 2002)
Values after ≈ are worked out from the molar mass of the structure shown. Values joined by “and” are separate entries in the source; they are usually repeats but may differ in a detail not shown here. Equal entries are not always repeated. Values belong to the molecule of their own block, whether it stands above or below them. Active and inactive are the calls of the source. No cut-off for these calls is given here.

Key:
Nucleic Acid [1] = test: Compound was tested for inhibitory activity against tryptophanyl tRNA synthetase in Staphylococcus aureus Oxford; No significant inhibition up to 20 uM concentration; format: nucleic-acid assay
Moraxella catarrhalis [2] = test: Minimum inhibitory concentration against Moraxella catarrhalis 1502 at a concentration of 32 ug/mL; format: functional, organism-based
Staphylococcus aureus [3] = test: Minimum inhibitory concentration against Staphylococcus aureus Oxford at a concentration of 32 ug/mL; format: functional, organism-based
Nucleic Acid [4] = test: Compound was tested for inhibitory activity against tryptophanyl tRNA synthetase in Staphylococcus aureus; NI means no inhibition uM; format: nucleic-acid assay
Haemophilus influenzae [5] = test: Minimum inhibitory concentration against Haemophilus influenzae Q1 at a concentration of 32 ug/mL; format: functional, organism-based
[6] = Compound was tested for inhibitory activity against tryptophanyl tRNA synthetase in Staphylococcus aureus; format: nucleic-acid assay
Nucleic Acid [7] = test: Binding affinity against Tryptophanyl tRNA synthetase was determined; format: nucleic-acid assay, Staphylococcus aureus
Haemophilus influenzae [8] = test: Minimum inhibitory concentration against Haemophilus influenzae Q1; format: functional
Moraxella catarrhalis [9] = test: Minimum inhibitory concentration against Moraxella catarrhalis 1502; format: functional
Staphylococcus aureus [10] = test: Minimum inhibitory concentration against Staphylococcus aureus oxford; format: functional

SMILES: CC1c2c[nH]c3cccc(c23)SC1C(N)=O (stereo unspecified)
- Activity (Nucleic Acid [1]): No significant inhibition up to 20 uM concentration

SMILES: COC(=O)C1Sc2cccc3[nH]cc(c23)C1C (stereo unspecified)
- Activity (Nucleic Acid [1]): No significant inhibition up to 20 uM concentration

- MIC (Moraxella catarrhalis [2]): inactive
- MIC (Staphylococcus aureus [3]): inactive
- IC50 (Nucleic Acid [4]): No inhibition
- MIC (Haemophilus influenzae [5]): inactive
SMILES: O=C([O-])[C@@H]1Sc2cccc3[nH]cc(c23)[C@@H]1CO.[Na+]

- IC50 (Nucleic Acid [4]): No inhibition
SMILES: CC1c2c[nH]c3cccc(c23)SC1C(=O)NO (stereo unspecified)

- IC50 [6]: 30 nM and 200 nM
- Ki (Nucleic Acid [7]): 20 nM
SMILES: C[C@H]1c2c[nH]c3cccc(c23)S[C@H]1C(=O)O [CHUANGXINMYCIN]

- MIC (Haemophilus influenzae [8]): 16 µg/mL (≈ 69.2 µM)
- MIC (Moraxella catarrhalis [9]): 16 µg/mL (≈ 69.2 µM)
- MIC (Staphylococcus aureus [10]): 4 µg/mL (≈ 17.3 µM)
- IC50 [6]: 230 nM
SMILES: O=C1OC[C@H]2c3c[nH]c4cccc(c34)S[C@@H]12

- IC50 [6]: 1100 nM
SMILES: CC1c2c[nH]c3cccc(c23)SC1C#N (stereo unspecified)

- IC50 (Nucleic Acid [4]): No inhibition
SMILES: CC1c2c[nH]c3cccc(c23)SC1c1nnn[nH]1 (stereo unspecified)

- IC50 [6]: 90 nM
SMILES: CC1c2c[nH]c3cccc(c23)SC1C=O (stereo unspecified)
